Legend:
[1] = target: T1, 5HT7 receptors (Homo sapiens, UniProt P34969); assay: Functional data (Kb), HitHunter cAMP enzyme fragment complementation assay with 5-HT as agonist; format: cell-based; set-up: expressed in transfected cells; G418 selection); details: Table 37, scaffold drawing 617; antagonist mode vs 5-HT; read-out: Kb
Description: Functional efficacy of the compounds of the disclosure on 5-HT7 serotonin receptors were measured in a cell based cAMP enzyme fragment complementation assay using the HitHunter cAMP assay (DiscoveRx). Cells stably expressing human 5HT7 receptors were plated in 96-well plates at 4000 cells/well, 16-20 hours prior to assay in growth media (Ultraculture medium, 2 mM GlutaMax and G418 1 mg/mL. Serial dilutions of the agonist, 5-hydroxytryptamine (5-HT), were prepared in a final concentration range of 10 μM to 10 nM. Compounds of the disclosure were prepared in 3-fold serial dilutions to obtain a final concentration range of 10 μM to 0.1 nM. Compounds of the disclosure are tested for agonist activity in the absence of 5-HT and antagonist activity in the presence of 5-HT. For the cAMP assay, the protocol was followed according to the instructions provided by the supplier. Briefly, cells were incubated with a compound of the disclosure for 30 minutes at 37° C. prior to addition of EC70 concentration of 5-HT. After an additional 30 minutes, cAMP antibody/cell lysis solution was added (20 μL/well) and incubated for 60 minutes at room temperature. cAMP XS+EA reagent is added (20 μL/well) and incubated for 2 hours at room temperature. Luminescence was read on the Envision Multilabel plate reader.

[2] = target: T1, 5HT7 receptors; assay: Radiolabeled binding (IC50 and Ki), [3H]LSD competition on membranes of cells expressing recombinant 5HT7 receptors; set-up: expressed in transfected cells; details: Table 37, scaffold drawing 617
Description: Radiolabel Binding Studies for Serotonin 5HT7 Receptors, Method 1:
(§1) A solution of the compound of the disclosure to be tested is prepared as a 1-mg/ml stock in Assay Buffer or DMSO according to its solubility. A similar stock of the reference compound chlorpromazine is also prepared as a positive control. Eleven dilutions (5×assay concentration) of the compound of the disclosure and chlorpromazine are prepared in the Assay Buffer by serial dilution to yield final corresponding assay concentrations ranging from 10 pM to 10 μM.
A stock concentration of 5 nM [^3H]LSD (lysergic acid diethyl amide) is prepared in 50 mM Tris-HCl, 10 mM MgCl2, 1 mM EDTA, pH 7.4 (Assay Buffer). Aliquots (50 μl) of radioligand are dispensed into the wells of a 96-well plate containing 100 μl of Assay Buffer. Duplicate 50-μl aliquots of the compound of the disclosure test and chlorpromazine positive control reference compound serial dilutions are added.
Membrane fractions of cells expressing recombinant 5HT7 receptors (50 μL) are dispensed into each well. The membranes are prepared from stably transfected cell lines expressing 5HT7 receptors cultured on 10-cm plates by harvesting PBS-rinsed monolayers, resuspending and lysing in chilled, hypotonic 50 mM Tris-HCl, pH 7.4, centrifuging at 20,000×g, decanting the supernatant and storing at −80° C.; the membrane preparations are resuspended in 3 ml of chilled Assay Buffer and homogenized by several passages through a 26 gauge needle before using in the assay.
The 250-μl reactions are incubated at room temperature for 1.5 hours, then harvested by rapid filtration onto 0.3% polyethyleneimine-treated, 96-well filter mats using a 96-well Filtermate harvester. Four rapid 500-μl washes are performed with chilled Assay Buffer to reduce non-specific binding. The filter mats are dried, then scintillant is added to the filters and the radioactivity retained on the filters is counted in a Microbeta scintillation counter.
Raw data (dpm) representing total radioligand binding (i.e., specific+non-specific binding) are plotted as a function of the logarithm of the molar concentration of the competitor (i.e., test or reference compound). Non-linear regression of the normalized (i.e., percent radioligand binding compared to that observed in the absence of test or reference compound) raw data is performed in Prism 4.0 (GraphPad Software) using the built-in three parameter logistic model describing ligand competition binding to radioligand-labeled sites: y=bottom+[(top-bottom)/(1+10×−logIC50)] where bottom equals the residual radioligand binding measured in the presence of 10 μM reference compound (i.e., non-specific binding) and top equals the total radioligand binding observed in the absence of competitor. The log IC50 (i.e., the log of the ligand concentration that reduces radioligand binding by 50%) is thus estimated from the data and used to obtain the Ki by applying the Cheng-Prusoff approximation: Ki=IC50/(1+[ligand]/KD) • where [ligand] equals the assay radioligand concentration and KD equals the affinity constant of the radioligand for the target receptor.
^1Radiolabeled Binding (IC50 and K1)
as §1, with “tested was” for “tested is”, “chlorpromazine was” for “chlorpromazine is”, “dilutions (5× assay” for “dilutions (5×assay”, “chlorpromazine were” for “chlorpromazine are”, “[…]” for “10 pM”
A stock concentration of 5 nM [^3H]LSD (lysergic acid diethyl amide) was prepared in 50 mM Tris-HCl, 10 mM MgCl2, 1 mM EDTA, pH 7.4 (Assay Buffer). Aliquots (50 μl) of radioligand were dispensed into the wells of a 96-well plate containing 100 μl of Assay Buffer. […]

T1 sequence (P34969 whole entry, the tested form may be a part): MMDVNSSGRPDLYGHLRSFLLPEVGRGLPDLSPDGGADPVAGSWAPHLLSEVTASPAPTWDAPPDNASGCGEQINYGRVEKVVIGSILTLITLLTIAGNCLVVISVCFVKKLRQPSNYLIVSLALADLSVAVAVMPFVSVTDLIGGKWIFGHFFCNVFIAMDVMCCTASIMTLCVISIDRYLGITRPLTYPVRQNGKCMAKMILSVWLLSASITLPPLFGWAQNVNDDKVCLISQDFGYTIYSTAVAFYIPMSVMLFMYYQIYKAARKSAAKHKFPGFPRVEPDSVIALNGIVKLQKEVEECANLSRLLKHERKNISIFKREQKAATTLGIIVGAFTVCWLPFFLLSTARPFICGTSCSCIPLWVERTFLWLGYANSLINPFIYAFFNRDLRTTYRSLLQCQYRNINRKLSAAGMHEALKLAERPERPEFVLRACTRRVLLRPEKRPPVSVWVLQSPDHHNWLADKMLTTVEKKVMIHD

Kb [1]: 30.7 nM
Ki [2]: 89 nM
Compound: CS(=O)(=O)N1CCC2(CC1)C[C@H](CCN1CCN(c3ccc(F)cc3)CC1)NC2=O [drawing 617 n=2 R3=4-F-Phenyl R7=MeSO2, (R)-3-(2-(4-(4-fluorophenyl)piperazin-1-yl)ethyl)-8-(methylsulfonyl)-2,8-diazaspiro[4.5]decan-1-one]
